Test results as given in patent US20260240959A1, “METHODS FOR IN VIVO EDITING OF KLKB1” (INTELLIA THERAPEUTICS, INC., priority 2022, published 2026).

What was measured:
[1] = cited from earlier work
[2] = Half-lives of HAE prophylactic products (from product sources); settings: for half-life: human
[3] = Plasma pharmacokinetics of LP01 (LC-MS/MS) in HAE patients; format: in vivo, human
Experimental: Blood samples were collected to assess plasma concentration time profiles pre-infusion, during the infusion period, and at the end of the infusion period. Post infusion samples were collected at predefined time points as indicated in the graph (FIG. 37). LP01 (Lipid A) was quantified using liquid chromatography with tandem mass spectrometry (LC-MS/MS) methods. Plasma samples were evaluated using validated methods following regulatory guidelines.

Molecule	Half Life (t1/2) [1]	half-life [2]	half-life ([3]; human, single dose IV infusion of NTLA-2002 25, 50 or 75 mg, range of cohort means, read-out: mean t1/2)	decline below limit of quantification by ([3]; single dose IV infusion of NTLA-2002)	Estimated washout for (5 half-lives) [2]
C#C[C@]1(O)CC[C@H]2[C@@H]3CCC4=Cc5oncc5C[C@]4(C)[C@H]3CC[C@@]21C [Danocrine, Danazol, reference compound]	9.7 h	48.5 h			
CCCCC/C=C\C/C=C\CCCCCCCC(=O)OCC(COC(=O)CCC(OCCCCCCCC)OCCCCCCCC)COC(=O)OCCCN(CC)CC (centres unmarked) [LP01, (9Z,12Z)-3-((4,4-bis(octyloxy)butanoyl)oxy)-2-((((3-(diethylamino)propoxy)carbonyl)oxy)methyl)propyl octadeca-9,12-dienoate]			16.8 to 21.3 h	≤ 15 days	
N#Cc1cccc([C@@H](NCC2CC2)c2ccc(F)c(NC(=O)c3cc(C(F)(F)F)nn3-c3cccc(CN)c3)c2)c1 [Orladeyo, Berotralstat, reference compound]	93 h	465 h			
C[C@]12COC(=O)C[C@@H]1CC[C@@H]1[C@@H]2CC[C@@]2(C)[C@H]1CC[C@]2(C)O [Oxandrin, Oxandrolone]		66.5 h			
Cinryze: C1 Esterase Inhibitor [Human], HAE prophylactic product	56 to 62 h				310 hours = ~13 days
Haegarda: C1 Esterase Inhibitor [Human], HAE prophylactic product	69 h				345 hours = ~14.5 days
